From ChEMBL document CHEMBL4507319 (2021)

Tests used:
[1] = tested on: Phosphatidylinositol 4,5-bisphosphate 3-kinase catalytic subunit alpha isoform (Homo sapiens), P42336 [H1047Y]; conditions: Compound concentration 1000.0 nM
[2] = biological target: Muscarinic acetylcholine receptor M1 (Homo sapiens) (UniProt P11229); conditions: Compound concentration 10.0 uM
[3] = biological target: Non-receptor tyrosine-protein kinase TYK2 (Homo sapiens) (UniProt P29597); conditions: Compound concentration 1000.0 nM
[4] = biological target: Serine/threonine-protein kinase RIO3 (Homo sapiens) (UniProt O14730); conditions: Compound concentration 1000.0 nM
[5] = biological target: Macrophage colony-stimulating factor 1 receptor (Homo sapiens) (UniProt P07333); conditions: Compound concentration 1000.0 nM
[6] = biological target: Protein-tyrosine kinase 6 (Homo sapiens) (UniProt Q13882); conditions: Compound concentration 1000.0 nM
[7] = biological target: Serine/threonine-protein kinase PLK4 (Homo sapiens) (UniProt O00444); conditions: Compound concentration 1000.0 nM
[8] = biological target: Vascular endothelial growth factor receptor 1 (Homo sapiens) (UniProt P17948); conditions: Compound concentration 1000.0 nM
[9] = biological target: Cyclin-dependent kinase 14 (Homo sapiens) (UniProt O94921); conditions: Compound concentration 1000.0 nM
[10] = biological target: T1, Ephrin type-B receptor 4 (Homo sapiens) (UniProt P54760); conditions: Compound concentration 1000.0 nM
T1 sequence (whole entry): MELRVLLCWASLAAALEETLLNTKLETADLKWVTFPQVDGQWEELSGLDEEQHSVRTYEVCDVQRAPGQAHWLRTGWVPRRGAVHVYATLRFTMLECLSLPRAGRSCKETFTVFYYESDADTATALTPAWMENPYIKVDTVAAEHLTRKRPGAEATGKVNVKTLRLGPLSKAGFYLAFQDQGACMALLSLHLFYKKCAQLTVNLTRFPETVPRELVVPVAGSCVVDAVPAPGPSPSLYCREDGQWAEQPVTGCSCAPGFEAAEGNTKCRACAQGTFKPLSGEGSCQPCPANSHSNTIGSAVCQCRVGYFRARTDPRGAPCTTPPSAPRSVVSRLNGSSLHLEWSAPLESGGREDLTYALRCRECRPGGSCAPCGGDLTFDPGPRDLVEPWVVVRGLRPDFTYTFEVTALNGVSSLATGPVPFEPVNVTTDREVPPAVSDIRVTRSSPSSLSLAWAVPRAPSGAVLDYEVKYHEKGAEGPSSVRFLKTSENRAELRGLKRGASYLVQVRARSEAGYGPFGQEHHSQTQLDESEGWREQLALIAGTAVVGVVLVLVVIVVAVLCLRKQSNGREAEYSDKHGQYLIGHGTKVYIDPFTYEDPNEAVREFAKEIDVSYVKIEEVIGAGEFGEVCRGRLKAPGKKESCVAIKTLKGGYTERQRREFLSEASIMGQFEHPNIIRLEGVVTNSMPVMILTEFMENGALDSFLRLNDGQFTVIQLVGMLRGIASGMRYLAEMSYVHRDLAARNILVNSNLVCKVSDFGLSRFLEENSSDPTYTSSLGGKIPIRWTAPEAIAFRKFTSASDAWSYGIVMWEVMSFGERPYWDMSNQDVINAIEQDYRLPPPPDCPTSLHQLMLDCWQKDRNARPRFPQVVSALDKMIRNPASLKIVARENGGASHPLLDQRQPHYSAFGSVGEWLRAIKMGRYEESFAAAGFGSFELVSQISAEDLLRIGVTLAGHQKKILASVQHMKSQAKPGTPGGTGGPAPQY

[11] = biological target: T2, Tyrosine-protein kinase receptor TYRO3 (Homo sapiens) (UniProt Q06418); conditions: Compound concentration 1000.0 nM
T2 sequence (whole entry): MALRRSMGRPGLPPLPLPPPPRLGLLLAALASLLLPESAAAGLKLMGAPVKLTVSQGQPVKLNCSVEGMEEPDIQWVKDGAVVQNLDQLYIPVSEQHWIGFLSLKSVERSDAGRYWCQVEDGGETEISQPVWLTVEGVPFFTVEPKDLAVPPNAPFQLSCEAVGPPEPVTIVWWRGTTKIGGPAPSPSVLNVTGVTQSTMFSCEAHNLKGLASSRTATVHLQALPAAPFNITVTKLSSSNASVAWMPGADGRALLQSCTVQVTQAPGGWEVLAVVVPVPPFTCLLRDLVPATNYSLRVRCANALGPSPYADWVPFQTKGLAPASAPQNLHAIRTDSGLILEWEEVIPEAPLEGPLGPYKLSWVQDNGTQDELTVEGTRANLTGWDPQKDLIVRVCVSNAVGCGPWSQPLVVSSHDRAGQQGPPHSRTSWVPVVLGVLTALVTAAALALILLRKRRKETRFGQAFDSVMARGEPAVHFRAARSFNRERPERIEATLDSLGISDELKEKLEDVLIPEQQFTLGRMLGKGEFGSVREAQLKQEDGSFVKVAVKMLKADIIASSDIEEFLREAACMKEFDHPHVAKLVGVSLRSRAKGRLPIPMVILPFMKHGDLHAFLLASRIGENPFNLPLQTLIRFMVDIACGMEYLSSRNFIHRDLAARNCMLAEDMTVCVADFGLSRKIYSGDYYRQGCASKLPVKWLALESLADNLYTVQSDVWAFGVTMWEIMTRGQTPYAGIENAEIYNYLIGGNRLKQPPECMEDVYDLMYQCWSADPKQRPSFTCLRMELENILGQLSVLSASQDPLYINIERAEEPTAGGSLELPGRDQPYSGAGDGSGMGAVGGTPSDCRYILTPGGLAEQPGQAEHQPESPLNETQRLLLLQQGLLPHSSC

[12] = biological target: Mitogen-activated protein kinase 11 (Homo sapiens) (UniProt Q15759); conditions: Compound concentration 1000.0 nM
[13] = tested on: Receptor-type tyrosine-protein kinase FLT3 (Homo sapiens), P36888 [D835Y]; conditions: Compound concentration 1000.0 nM
[14] = biological target: Tyrosine-protein kinase Fes/Fps (Homo sapiens) (UniProt P07332); conditions: Compound concentration 1000.0 nM
[15] = biological target: TGF-beta receptor type-2 (Homo sapiens) (UniProt P37173); conditions: Compound concentration 1000.0 nM
[16] = biological target: Casein kinase I isoform alpha-like (Homo sapiens) (UniProt Q8N752); conditions: Compound concentration 1000.0 nM
[17] = biological target: Mitogen-activated protein kinase 4 (Homo sapiens) (UniProt P31152); conditions: Compound concentration 1000.0 nM
[18] = biological target: Serine/threonine-protein kinase MRCK beta (Homo sapiens) (UniProt Q9Y5S2); conditions: Compound concentration 1000.0 nM
[19] = biological target: Tyrosine-protein kinase Fyn (Homo sapiens) (UniProt P06241); conditions: Compound concentration 1000.0 nM
[20] = biological target: 5-hydroxytryptamine receptor 7 (Homo sapiens) (UniProt P34969); conditions: Compound concentration 10.0 uM
Chain of 5-hydroxytryptamine receptor 7 (Homo sapiens) (P34969 whole entry): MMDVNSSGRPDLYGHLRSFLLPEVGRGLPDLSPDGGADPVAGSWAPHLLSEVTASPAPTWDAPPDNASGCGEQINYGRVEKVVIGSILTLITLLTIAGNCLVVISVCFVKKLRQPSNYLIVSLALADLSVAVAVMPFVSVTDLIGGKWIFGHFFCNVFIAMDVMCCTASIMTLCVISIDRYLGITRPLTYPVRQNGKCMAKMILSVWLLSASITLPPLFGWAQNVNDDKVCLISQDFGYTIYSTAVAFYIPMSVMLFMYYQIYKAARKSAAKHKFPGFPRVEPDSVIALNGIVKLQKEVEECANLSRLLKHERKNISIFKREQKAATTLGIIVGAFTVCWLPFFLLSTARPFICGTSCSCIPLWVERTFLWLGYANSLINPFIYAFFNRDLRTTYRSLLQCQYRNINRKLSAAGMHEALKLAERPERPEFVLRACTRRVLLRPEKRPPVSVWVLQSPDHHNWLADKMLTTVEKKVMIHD

Chain of Cyclin-dependent kinase 14 (Homo sapiens) (O94921 whole entry): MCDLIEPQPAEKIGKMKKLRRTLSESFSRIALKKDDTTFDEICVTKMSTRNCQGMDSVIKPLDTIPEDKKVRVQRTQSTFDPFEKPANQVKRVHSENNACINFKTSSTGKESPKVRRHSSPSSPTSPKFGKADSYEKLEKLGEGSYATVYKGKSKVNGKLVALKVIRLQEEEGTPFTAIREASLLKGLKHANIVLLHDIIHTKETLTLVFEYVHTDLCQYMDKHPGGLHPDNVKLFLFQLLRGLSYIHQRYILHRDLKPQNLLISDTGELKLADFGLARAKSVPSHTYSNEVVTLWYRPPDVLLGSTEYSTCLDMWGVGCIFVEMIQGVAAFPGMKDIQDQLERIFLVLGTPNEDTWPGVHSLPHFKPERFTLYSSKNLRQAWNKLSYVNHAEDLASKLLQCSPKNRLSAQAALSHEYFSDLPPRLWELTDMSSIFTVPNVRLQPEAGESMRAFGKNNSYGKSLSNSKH
Chain of Serine/threonine-protein kinase PLK4 (Homo sapiens) (O00444 whole entry): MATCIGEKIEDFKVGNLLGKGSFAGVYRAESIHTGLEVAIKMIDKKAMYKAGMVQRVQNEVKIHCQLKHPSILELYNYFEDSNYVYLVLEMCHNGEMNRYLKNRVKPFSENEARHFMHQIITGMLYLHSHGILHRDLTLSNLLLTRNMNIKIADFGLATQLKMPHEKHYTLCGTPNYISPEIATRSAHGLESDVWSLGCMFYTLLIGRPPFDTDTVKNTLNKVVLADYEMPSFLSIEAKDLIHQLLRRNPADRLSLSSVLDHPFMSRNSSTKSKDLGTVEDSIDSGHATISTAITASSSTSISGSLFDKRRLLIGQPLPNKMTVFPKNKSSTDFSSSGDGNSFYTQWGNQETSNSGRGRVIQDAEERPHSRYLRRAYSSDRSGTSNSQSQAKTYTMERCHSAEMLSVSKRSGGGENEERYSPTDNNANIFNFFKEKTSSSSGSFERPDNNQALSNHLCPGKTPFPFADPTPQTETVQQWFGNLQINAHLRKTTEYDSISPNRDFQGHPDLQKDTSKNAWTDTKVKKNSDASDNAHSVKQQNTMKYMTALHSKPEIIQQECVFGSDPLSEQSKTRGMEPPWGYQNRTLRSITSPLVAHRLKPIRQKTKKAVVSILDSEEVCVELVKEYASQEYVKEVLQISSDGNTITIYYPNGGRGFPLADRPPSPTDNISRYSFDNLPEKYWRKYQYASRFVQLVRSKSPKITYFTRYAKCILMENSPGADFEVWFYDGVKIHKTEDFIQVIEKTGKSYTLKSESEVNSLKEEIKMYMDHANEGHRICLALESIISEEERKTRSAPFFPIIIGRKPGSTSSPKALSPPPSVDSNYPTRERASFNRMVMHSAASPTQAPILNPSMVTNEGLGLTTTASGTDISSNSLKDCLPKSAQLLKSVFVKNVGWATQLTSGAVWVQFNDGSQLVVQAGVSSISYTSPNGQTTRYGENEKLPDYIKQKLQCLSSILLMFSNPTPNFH
Chain of Phosphatidylinositol 4,5-bisphosphate 3-kinase catalytic subunit alpha isoform (Homo sapiens), P42336 [H1047Y] (P42336 whole entry H1047Y, canonical isoform): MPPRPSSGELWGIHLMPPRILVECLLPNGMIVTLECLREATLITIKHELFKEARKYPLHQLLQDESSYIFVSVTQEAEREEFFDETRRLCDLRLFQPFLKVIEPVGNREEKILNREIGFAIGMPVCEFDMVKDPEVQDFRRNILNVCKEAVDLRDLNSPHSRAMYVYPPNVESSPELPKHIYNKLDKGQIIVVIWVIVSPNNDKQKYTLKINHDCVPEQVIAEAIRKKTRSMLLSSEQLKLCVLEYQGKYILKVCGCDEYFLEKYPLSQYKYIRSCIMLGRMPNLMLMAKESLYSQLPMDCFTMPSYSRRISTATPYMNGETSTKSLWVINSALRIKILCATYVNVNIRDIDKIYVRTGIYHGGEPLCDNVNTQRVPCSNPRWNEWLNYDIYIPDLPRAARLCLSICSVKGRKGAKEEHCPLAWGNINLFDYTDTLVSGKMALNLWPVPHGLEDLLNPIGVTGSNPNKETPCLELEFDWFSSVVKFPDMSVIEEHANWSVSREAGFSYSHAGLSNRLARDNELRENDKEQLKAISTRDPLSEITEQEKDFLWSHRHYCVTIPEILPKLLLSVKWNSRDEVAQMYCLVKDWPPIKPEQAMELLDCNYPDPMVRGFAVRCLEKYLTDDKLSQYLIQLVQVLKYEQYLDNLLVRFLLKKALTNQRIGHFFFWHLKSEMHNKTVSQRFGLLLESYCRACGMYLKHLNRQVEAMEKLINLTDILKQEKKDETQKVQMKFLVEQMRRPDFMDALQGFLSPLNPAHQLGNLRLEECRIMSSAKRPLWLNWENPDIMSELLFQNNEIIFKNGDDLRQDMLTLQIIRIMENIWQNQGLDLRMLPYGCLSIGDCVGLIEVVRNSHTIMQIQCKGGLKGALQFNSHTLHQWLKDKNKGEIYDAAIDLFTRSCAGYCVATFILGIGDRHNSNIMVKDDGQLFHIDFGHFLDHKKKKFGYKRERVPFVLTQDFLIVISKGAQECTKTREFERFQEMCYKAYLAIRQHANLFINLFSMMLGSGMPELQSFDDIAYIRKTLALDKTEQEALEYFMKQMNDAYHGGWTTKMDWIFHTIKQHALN
Chain of Tyrosine-protein kinase Fes/Fps (Homo sapiens) (P07332 whole entry): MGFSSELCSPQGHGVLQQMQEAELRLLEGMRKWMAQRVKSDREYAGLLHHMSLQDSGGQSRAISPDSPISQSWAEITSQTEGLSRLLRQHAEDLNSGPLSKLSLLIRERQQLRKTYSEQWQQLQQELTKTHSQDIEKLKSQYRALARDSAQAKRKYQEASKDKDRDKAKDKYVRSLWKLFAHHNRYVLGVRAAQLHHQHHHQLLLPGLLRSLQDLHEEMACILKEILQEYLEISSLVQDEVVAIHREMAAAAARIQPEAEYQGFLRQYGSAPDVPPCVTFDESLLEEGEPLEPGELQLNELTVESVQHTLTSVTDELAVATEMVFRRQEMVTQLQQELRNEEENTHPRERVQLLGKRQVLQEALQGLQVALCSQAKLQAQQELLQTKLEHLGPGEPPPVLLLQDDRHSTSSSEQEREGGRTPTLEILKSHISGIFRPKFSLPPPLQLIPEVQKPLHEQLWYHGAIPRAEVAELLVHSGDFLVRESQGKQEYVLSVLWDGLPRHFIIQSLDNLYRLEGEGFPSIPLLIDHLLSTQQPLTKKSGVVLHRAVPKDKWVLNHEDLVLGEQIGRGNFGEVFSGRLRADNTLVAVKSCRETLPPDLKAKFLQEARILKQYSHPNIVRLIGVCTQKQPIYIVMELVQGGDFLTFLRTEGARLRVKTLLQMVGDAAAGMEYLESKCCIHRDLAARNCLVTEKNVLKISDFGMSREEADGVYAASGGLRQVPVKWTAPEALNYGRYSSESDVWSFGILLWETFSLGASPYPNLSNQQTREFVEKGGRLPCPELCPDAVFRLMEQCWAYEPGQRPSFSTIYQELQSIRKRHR
Chain of Macrophage colony-stimulating factor 1 receptor (Homo sapiens) (P07333 whole entry): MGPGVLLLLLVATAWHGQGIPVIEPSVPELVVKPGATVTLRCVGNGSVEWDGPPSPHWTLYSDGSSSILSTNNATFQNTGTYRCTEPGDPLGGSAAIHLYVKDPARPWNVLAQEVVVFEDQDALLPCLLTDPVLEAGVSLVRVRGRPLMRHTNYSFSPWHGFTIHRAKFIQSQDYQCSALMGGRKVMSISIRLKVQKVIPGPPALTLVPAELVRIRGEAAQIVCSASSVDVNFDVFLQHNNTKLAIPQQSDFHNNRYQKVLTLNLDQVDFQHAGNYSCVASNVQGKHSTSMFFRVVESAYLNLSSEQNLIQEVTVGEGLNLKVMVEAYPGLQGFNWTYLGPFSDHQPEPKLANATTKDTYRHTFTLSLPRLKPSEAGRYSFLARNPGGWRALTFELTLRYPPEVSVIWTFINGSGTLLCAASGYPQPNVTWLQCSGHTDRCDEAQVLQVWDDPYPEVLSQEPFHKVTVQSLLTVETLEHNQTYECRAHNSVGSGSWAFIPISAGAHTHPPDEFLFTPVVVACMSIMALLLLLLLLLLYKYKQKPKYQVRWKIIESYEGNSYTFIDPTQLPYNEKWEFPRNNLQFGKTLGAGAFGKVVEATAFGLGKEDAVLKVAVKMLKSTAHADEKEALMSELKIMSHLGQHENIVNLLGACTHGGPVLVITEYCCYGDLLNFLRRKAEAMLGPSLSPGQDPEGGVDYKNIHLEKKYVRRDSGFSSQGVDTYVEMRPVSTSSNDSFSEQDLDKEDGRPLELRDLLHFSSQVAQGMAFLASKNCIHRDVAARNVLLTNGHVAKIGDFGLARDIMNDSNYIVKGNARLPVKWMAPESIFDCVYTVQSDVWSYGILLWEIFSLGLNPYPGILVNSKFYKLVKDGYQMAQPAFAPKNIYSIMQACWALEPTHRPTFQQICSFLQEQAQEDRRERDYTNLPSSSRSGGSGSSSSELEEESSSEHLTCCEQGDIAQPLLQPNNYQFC

## CCc1ccccc1C(=O)Nc1n[nH]c2c(C)c(F)c(C3C(C#N)=C(C)N(C)C(C)=C3C#N)cc12 [BAY-3827]
[1]
  residual activity: 77%
[2]
  inhibition: 2.81%
[3]
  residual activity: 100%
[4]
  residual activity: 45%
[5]
  residual activity: 100%
[6]
  residual activity: 100%
[7]
  residual activity: 100%
[8]
  residual activity: 72%
[9]
  residual activity: 83%
[10]
  residual activity: 51%
[11]
  residual activity: 100%
[12]
  residual activity: 91%
[13]
  residual activity: 2.5%
[14]
  residual activity: 68%
[15]
  residual activity: 82%
[16]
  residual activity: 62%
[17]
  residual activity: 96%
[18]
  residual activity: 100%
[19]
  residual activity: 100%
[20]
  inhibition: 13.9%

## CC1=C(C#N)C(c2ccc3c(c2)c(NC(=O)c2ccccc2C)nn3C)C(C#N)=C(C)N1 [BAY-974]
[1]
  residual activity: 91%
[2]
  inhibition: -1.37%
[3]
  residual activity: 88%
[4]
  residual activity: 87%
[5]
  residual activity: 100%
[6]
  residual activity: 100%
[7]
  residual activity: 100%
[8]
  residual activity: 100%
[9]
  residual activity: 100%
[10]
  residual activity: 97%
[11]
  residual activity: 100%
[12]
  residual activity: 100%
[13]
  residual activity: 82%
[14]
  residual activity: 84%
[15]
  residual activity: 99%
[16]
  residual activity: 97%
[17]
  residual activity: 100%
[18]
  residual activity: 100%
[19]
  residual activity: 100%
[20]
  inhibition: 6.72%
